Measurements from patent publication US20110039787A1, “COMPOSITIONS, KITS AND METHODS FOR TREATING BENIGN PROSTATE HYPERPLASIA” (priority 2009, published 2011).
Square brackets hold non-standard residues; d marks the D form. Peptide text beside a SMILES is read from it. * marks the point of attachment. dPhe(4-NHCONH2) = NC(=O)Nc1ccc(C[C@@H](N)C(=O)O)cc1; Dihydroorotyl(S) = O=C1C[C@@H](C(=O)*)NC(=O)N1; dPhe(4-Cl) = N[C@H](Cc1ccc(Cl)cc1)C(=O)O; Phe(4-NH2) = Nc1ccc(C[C@H](N)C(=O)O)cc1; d2Nal = N[C@H](Cc1ccc2ccccc2c1)C(=O)O; Lys(iPr) = CC(C)NCCCC[C@H](N)C(=O)O; d3Pal = N[C@H](Cc1cccnc1)C(=O)O

Key:
men with BPH [1] = assay: IPSS global QoL question, clinical trial in BPH patients; format: in vivo
Protocol: (§1) For each patient, the following parameters were measured or assessed (using the methods discussed below), at time points of screening day 0 (e.g., −7 days, “baseline”), day 14, day 28, and day 42:
(§2) After the initial 6-week treatment period of the exploratory study had been completed, a 12-month follow-up period looking at long-term efficacy commenced. Interim data of the main efficacy variables (IPSS, IPSS Global QoL, prostate volume, urinary flow, and post-void residual volume—measured as set out below) after 6 months' follow-up are also presented herein at Tables 1, 2, 3, and FIG. 1b. FIG. 1b also includes IPSS data at 9 and 12 months.
Included in the IPSS is one item to evaluate QoL (i.e., IPSS-global QoL). The Global QoL Question was developed alongside the IPSS and was officially included as part of the IPSS in 1993 when the WHO formally recommended the IPSS for both symptom and QoL assessment. […] This question assesses the degree to which patients find their symptoms bothersome. Patients are asked about how they would feel if they were to spend the rest of their lives with their prostate symptoms just as they are now. The choices for answering this quality of life question range from “delighted” (rating=0) to “terrible” (rating=6).

prostate volume = assay: Prostate volume by transrectal ultrasound; format: in vivo, men
Protocol: as §1
(§3) 2) Efficacy Endpoints—the measured Peak Urinary Flow, Post-void Residual Volume, and Prostate Volume.
as §2
The prostate volume was measured by transrectal ultrasound with the patient in a lateral position. The prostatic gland was sonicated from two directions perpendicular to one another resulting in three cursor positions set by the urologist. The volume was calculated automatically. The investigations were performed by urologists by methods known in the art.

men with BPH [2] = assay: Peak (maximal) urinary flow by flowmetry; format: in vivo
Protocol: as §1, §3
Peak urinary flow was determined by flowmetry using the Uropower device (Wiest, World of Medicine AG, Germany). The device fulfilled the International Continence Society standards for maximum urinary flow. The measurement of urinary flow was done in a sitting position.
The Qmax is the maximal urinary flow rate. It is a traditional parameter used in BPH trials and is a good indicator of degree of bladder outlet obstruction (BOO).

[3] = 16+16 mg, Month 6 follow-up, n=6
[4] = 32+32 mg, Month 6 follow-up, n=7
[5] = combined group (all doses), Day 42
[6] = across all patient groups, Day 42

With `CC(=O)N[C@H](Cc1ccc2ccccc2c1)C(=O)N[C@H](Cc1ccc(Cl)cc1)C(=O)N[C@H](Cc1cccnc1)C(=O)N[C@@H](CO)C(=O)N[C@@H](Cc1ccc(NC(=O)[C@@H]2CC(=O)NC(=O)N2)cc1)C(=O)N[C@H](Cc1ccc(NC(N)=O)cc1)C(=O)N[C@@H](CC(C)C)C(=O)N[C@@H](CCCCNC(C)C)C(=O)N1CCC[C@H]1C(=O)N[C@H](C)C(N)=O` [Degarelix, D-Alaninamide, N-acetyl-3-(2-naphthalenyl)-D-alanyl-4-chloro-D-phenylalanyl-3-(3-pyridinyl)-D-alanyl-L-seryl-4-[[[(4S)-hexahydro-2,6-dioxo-4-pyrimidinyl]carbonyl]amino]-L-phenylalanyl-4-[(aminocarbonyl)amino]-D-phenylalanyl-L leucyl-N6-(1-methylethyl)-L-lysyl-L-prolyl] (Ac-[d2Nal][dPhe(4-Cl)][d3Pal]S[Phe(4-NH2)](Dihydroorotyl(S))[dPhe(4-NHCONH2)]L[Lys(iPr)]P[dA]-NH2) the “Mean IPSS global QoL score, mean (SD)” value (men with BPH [1]; 64 mg, Month 6 follow-up, n=4) was 3.8 (1.3), the “Mean IPSS global QoL score, mean (SD)” value (men with BPH [1]; 16+16 mg, Day 42, N=13) was 2.9 (1.4) and the “Mean change from baseline in IPSS global QoL score, mean (SD)” value (men with BPH [1]; 16+16 mg, Day 42, N=13) was −1.2 (1.4). The “Change from baseline in IPSS global QoL score, mean (SD)” value (men with BPH [1]; [3]) was −0.3 (0.5), the “Mean IPSS global QoL score, mean (SD)” value (men with BPH [1]; [3]) was 4.2 (1.5) and the “Mean IPSS global QoL score, mean (SD)” value (men with BPH [1]; 32+32 mg, Day 42, N=12) was 1.9 (1.6). The “Mean change from baseline in IPSS global QoL score, mean (SD)” value (men with BPH [1]; 32+32 mg, Day 42, N=12) was −2.4 (1.9), the “Change from baseline in IPSS global QoL score, mean (SD)” value (men with BPH [1]; [4]) was −2.7 (2.1) and the “Mean IPSS global QoL score, mean (SD)” value (men with BPH [1]; [4]) was 1.6 (0.8). The “Patients feeling delighted, pleased, or mostly satisfied (IPSS Global QoL scores 0-2)” value (men with BPH [1]; [5]) was 58%, the “Patients feeling unhappy or terrible (IPSS Global QoL scores 5 and 6)” value (men with BPH [1]; [5]) was 12% and the “Mean (SD) Prostate Volume” value (prostate volume; 32 mg, Day 42, N=12) was 34.8 (14.2) mL. For the same molecule, the “Prostate Volume, Change from Baseline, mean (SD)” value (shortened to “Prostate Volume, Change … (SD)”) (prostate volume; 32 mg, Day 42, N=12) was −13.9 (14.7) mL, the “Prostate Volume, Percentage Change from Baseline, mean (SD)” value (“Prostate Volume, Percentage Change … (SD)” for short) (prostate volume; 32 mg, Day 42, N=12) was −25.1 (18.0) % and the “Mean (SD) Prostate Volume” value (prostate volume; 32 mg, Month 6 follow-up, n=7) was 34.3 (13.9) mL. The “Prostate Volume, Change … (SD)” value (prostate volume; 32 mg, Month 6 follow-up, n=7) was −11.6 (5.1) mL, the “Prostate Volume, Percentage Change … (SD)” value (prostate volume; 32 mg, Month 6 follow-up, n=7) was −25.6 (8.0) % and the “Mean (SD) Prostate Volume” value (prostate volume; 64 mg, Day 42, N=13) was 30.6 (10.5) mL. For the same molecule, the “Prostate Volume, Change … (SD)” value (prostate volume; 64 mg, Day 42, N=13) was −8.2 (10.2) mL, the “Prostate Volume, Percentage Change … (SD)” value (prostate volume; 64 mg, Day 42, N=13) was −19.7 (23.2) % and the “Mean (SD) Prostate Volume” value (prostate volume; 64 mg, Month 6 follow-up, n=4) was 29.0 (3.4) mL. For the same molecule, the “Prostate Volume, Change … (SD)” value (prostate volume; 64 mg, Month 6 follow-up, n=4) was −9.7 (10.4) mL, the “Prostate Volume, Percentage Change … (SD)” value (prostate volume; 64 mg, Month 6 follow-up, n=4) was −21.5 (20.6) % and the “Mean (SD) Prostate Volume” value (prostate volume; 16+16 mg, Day 42, N=13) was 34.5 (11.0) mL. The “Prostate Volume, Change … (SD)” value (prostate volume; 16+16 mg, Day 42, N=13) was −7.5 (7.7) mL, the “Prostate Volume, Percentage Change … (SD)” value (prostate volume; 16+16 mg, Day 42, N=13) was −17.0 (16.7) % and the “Mean (SD) Prostate Volume” value (prostate volume; [3]) was 29.6 (10.4) mL. The “Prostate Volume, Change … (SD)” value (prostate volume; [3]) was −11.2 (4.4) mL, the “Prostate Volume, Percentage Change … (SD)” value (prostate volume; [3]) was −27.8 (8.7) % and the “Mean (SD) Prostate Volume” value (prostate volume; 32+32 mg, Day 42, N=12) was 28.7 (8.2) mL. For the same molecule, the “Prostate Volume, Change … (SD)” value (prostate volume; 32+32 mg, Day 42, N=12) was −9.4 (9.3) mL, the “Prostate Volume, Percentage Change … (SD)” value (prostate volume; 32+32 mg, Day 42, N=12) was −23.5 (20.9) % and the “Mean (SD) Prostate Volume” value (prostate volume; [4]) was 26.5 (6.0) mL. For the same molecule, the “Prostate Volume, Change … (SD)” value (prostate volume; [4]) was −10.6 (8.8) mL, the “Prostate Volume, Percentage Change … (SD)” value (prostate volume; [4]) was −27.1 (17.3) % and the “Mean maximal urinary flow” value (men with BPH [2]; 32 mg, Day 42 (baseline 11.7)) was 11.2 mL/s. For the same molecule, the “Mean maximal urinary flow” value (men with BPH [2]; 64 mg, Day 42 (baseline 9.1)) was 11.9 mL/s, the “Mean maximal urinary flow” value (men with BPH [2]; 16+16 mg, Day 42 (baseline 10.0)) was 10.1 mL/s and the “Mean maximal urinary flow” value (men with BPH [2]; 32+32 mg, Day 42 (baseline 9.7)) was 12.2 mL/s. For the same molecule, the “Number of patients in whom maximal urinary flow decreased compared to baseline” value (men with BPH [2]; [6]) was 25 patients, the “Number of patients in whom maximal urinary flow increased compared to baseline” value (men with BPH [2]; [6]) was 24 patients and the “Number of patients in whom maximal urinary flow remained unchanged” value (men with BPH [2]; [6]) was 1 patient.
